# Reference: publication PMC7312375, “A Novel, Pan-PDE Inhibitor Exerts Anti-Fibrotic Effects in Human Lung Fibroblasts via Inhibition of TGF-β Signaling and Activation of cAMP/PKA Signaling” (International Journal of Molecular Sciences, 2020)
# How the values were obtained:
# Type in all cases: cell-based, human
# MRC-5 cells [1] = experiment: TGF-β1-induced collagen gel contraction assay; conditions: 10 µM, 1 h pre-incubation, 6 h TGF-β1; compared to TGF-β1 alone
# Protocol: A collagen cell contraction assay was performed according to manufactures’ instructions (Cell Biolabs, INC., San Diego, CA, USA). Briefly, MRC-5 was harvested and mixed with a collagen solution. After polymerization, collagen gel lattices were cultured for two days, during which mechanical tension develops. Before releasing the stressed matrix, MRC-5 cells were pre-treated with study compounds (10 µM) for 1 h. Then collagen gels were gently released from the sides of the culture dishes and contraction in the presence of study compounds, and TGF-β1 was initiated. The collagen gel size was monitored at various time points and quantified with the Fiji ImageJ Software (National Institutes of Health, Bethesda, MD, USA, version 1.52q). The experiments were run three times.
# [2] = test system: TGF-β1-induced MRC-5 cells; experiment: Western blot of p-CREB; conditions: 10 µM
# Protocol: Western Blot analysis was performed according to a standard protocol. Briefly, MRC-5 cells were pre-incubated with the study compounds (10 µM) for 1 h, followed by 48 h incubation with TGF-β1 and then lysed in RIPA buffer (RIPA Lysis and Extraction Buffer, Thermo Fisher Scientific, Waltham, MA, USA) and supplemented with protease inhibitor cocktail and phosphatase inhibitor cocktail (both from Sigma Aldrich, St. Louis, MO, USA). Equal amounts of protein (30 µg) were separated using 10% SDS-polyacrylamide gels and transferred onto polyvinylidene difluoride (PVDF) membranes (Thermo Fisher Scientific, Waltham, MA, USA). […] ROD was measured according to the NIH guidelines with Fiji ImageJ Software. […]
# [3] = test system: TGF-β1-induced MRC-5 cells; experiment: Protein kinase A activity; conditions: 10 µM 30 min, then TGF-β1 30 min
# Protocol: Protein Kinase A (PKA) activity in MRC-5 cells was determined using a PKA Colorimetric Activity Kit (Invitrogen, Carlsbad, CA, USA) according to the manufacturer’s protocol. MRC-5 cells were seeded in standard culture medium, and after 48 h they were serum-starved for 2 h in HBSS, followed by the addition of study compounds (10 µM) and incubation for 30 min. Finally, TGF-β1 was administered, and the samples were incubated for an additional 30 min. Whole cell lysates were used in the assay. The amount of PKA was normalized to the total protein content in each sample. The experiments were run two times in duplicates.
# MRC-5 cells [4] = experiment: cAMP ELISA; conditions: 10 µM, 30 min
# Protocol: MRC-5 cells were seeded in standard culture medium for 24 h and then serum-starved for 2 h in HBSS. The study compounds (10 µM) were added to the MRC-5 cultures and after 30 min of incubation, the intracellular cAMP level in cell lysates was measured using a colorimetric cAMP ELISA Kit according to the manufacturer’s protocol (Cell Biolabs, INC., San Diego, CA, USA). Obtained results were normalized to total protein content in each sample. The experiments were run two times in duplicates.
# [5] = test system: TGF-β1-induced MRC-5 cells; experiment: Immunofluorescence, nuclear localization of p-CREB; conditions: 10 µM
# Protocol: For immunocytochemical labeling, MRC-5 cells were seeded on glass coverslips. Study compounds (10 µM) were added 1 h before TGF-β1 treatment, and analysis was performed after 1 h (p-Smad-2 and p-CREB detection) or 48 h (α-SMA detection) of incubation. Cells were fixed in methanol or 4% formaldehyde solution, permeabilized in 0.2% or 0.1% Triton X-100 solution (for p-Smad-2 and p-CREB or α-SMA, respectively). After incubation in blocking solution the following primary antibodies: rabbit polyclonal, anti-phospho-Smad-2 (Ser465, Ser467) antibody (#44-244G, Thermo Fisher Scientific, Waltham, MA, USA); rabbit polyclonal, anti-phospho-CREB1 (Ser133) antibody (#orb213775, Biorbyt, Cambridge, United Kingdom); mouse monoclonal, anti-α-SMA antibody (#MA5-11547, Thermo Fisher Scientific, Waltham, MA, USA) and secondary antibodies: goat anti-rabbit Alexa Fluor 546 conjugated antibody and goat anti-mouse Alexa Fluor 488 conjugated antibody (#A-11010 and #A-11001, respectively, Invitrogen, Carlsbad, CA, USA) were used. Nuclei were counterstained with Hoechst 33342 dye (Thermo Fisher Scientific, Waltham, MA, USA). Slides were mounted in ProLong™ Glass Antifade Mountant (Invitrogen, Carlsbad, CA, USA) and analyzed using Leica DMiL LED Fluo microscope (for α-SMA and p-CREB visualization, 40× objective) or Leica DMi8 with Thunder Imaging System (for p-Smad-2 visualization, 40× objective), all equipped with LAS-X Software (Leica Microsystems GmbH, Wetzlar, Germany). Experiments were run four times using five randomly selected fields of view, at the same fluorescent time exposure and in a blind-folded manner.
compound,measurement,setting,value
"C=C[C@@]1(C)CC(=O)[C@]2(O)[C@@]3(C)[C@@H](O)CCC(C)(C)[C@@H]3[C@H](O)[C@H](OC(C)=O)[C@@]2(C)O1 [forskolin, reference compound]",size of collagen gel lattices (TGF-β1-induced contraction),MRC-5 cells [1],showed similar properties as 145 or IBMX
same,CREB phosphorylation (immunoblot),[2],increased CREB phosphorylation
same,Protein kinase A activity in TGF-β1-induced fibroblasts,[3],the highest
same,increase in cAMP level compared to control,MRC-5 cells [4],5.7 fold
same,elevation of fraction of MRC-5 cells with nuclear p-CREB localization,[5],76%
